From patent US12350341B2, “Methods for the treatment of cancer and benign lesions by ablation” (Duke University, priority 2017, dated 2025)
“And” between values parts separate entries of the source, which are not always exact repeats. Identical values can stand only once. Like-named read-outs stand apart in the source and are kept apart here.

How the values were obtained:
[1] = test system: HeLa human cervical carcinoma cells; experiment: In vitro viability study, trypan blue exclusion assay; assay type: cell-based; conditions: 0.5 mL solution added to 0.5 mL media, 15 seconds at room temperature, PBS control 86%
Procedure: Low passage HeLa human cervical carcinoma cells (ATCC) were maintained with Eagles minimum essential medium (MEM, Gibeo, Carlsbad, California) supplemented with 10% (vol.) fetal bovine serum, 1% (vol.) penicillin and 1% (vol.) streptomycin. Cells were passaged twice per week and maintained at 37° C. and 5% CO2. Cells were cultured in two 12-well plates and grown to 80% confluence. Immediately before the experiment, cell media was removed and 0.5 mL of fresh media was added to each well. Next, each well was treated with 0.5 mL of either ethanol (200 proof, Koptec, King of Prussia, PA), 3% (w/w) ethyl cellulose (USP, Sigma Aldrich, Rockville, MD) in ethanol or PBS (control), added directly to the media. […] Tapani, E., et al., Toxicity of ethanol in low concentrations. Experimental evaluation in cell culture. Acta Radiol, 1996. 37(6): p. 923-6. The media containing the treatment solution was then removed, each well was rinsed twice with 1 mL of PBS, and given 1 mL of fresh MEM media. After all wells had been treated, each well was rinsed one time with 1 mL of PBS, given 250 μL of […] trypsin (Gibed, Carlsbad, CA), and returned to the incubator for 5 minutes. […] Viability was then assessed with a trypan blue exclusion assay (Gibco, Carlsbad, CA and a Countess Automated Cell Counter, Invitrogen, Carlsbad, CA). […]

[2] = test system: squamous cell carcinoma tumors in the hamster cheek pouch; experiment: Injection rate- and viscosity-controlled ablation study, hamster cheek pouch model; assay type: in vivo; conditions: day 7, 50 μL injected, mean over injection rates 0.1, 1.0, 10 and 100 mL/hr
Procedure: Three percent ethyl cellulose (Sigma Aldrich)-ethanol solutions (weight by weight) were prepared by stirring at room temperature. Three percent was chosen as higher viscosities required a lockable needle to stay attached to the syringe at high injection rates. Two drops of blue food dye were added for every 1 mL of ethanol and ethyl cellulose-ethanol solutions to enhance contrast. 50 μL of either solution was injected at a rate of 0.1, 0.5, 1.0, 5.0, 10 or 35 mL/hr as controlled by a syringe pump (NE-300 Just Infusion Syringe Pump). Manual injections were approximately 100 mL/hr. A 1 mL syringe and 27 G needles connected with microtubing (Tygon Microtube Tubing, 0.25 mmID) were used for injections. On the outflow-end of the catheter tube a 27 G needle was snapped off the base to fit into the tubing.
Oral Surg Oral Med Oral Pathol, 1986. 61(4): p. 368-72. […] The cheek pouches were painted until tumors of at least 100 uL in volume developed, at approximately 22 weeks.
The average tumor volume was 195±140 μL and 50 μL of solution (either ethanol or 3% ethyl cellulose-ethanol) was injected. Solutions were injected with the syringe pump at 0.1, 1.0 or 10 mL/hr or injected manually. Tumor volume was measured before injections and at 1, 2 4 and 7 days following the injection. […] 36 total ablations were performed on 8 animals. […]

[3] = test system: squamous cell carcinoma tumors in the hamster cheek pouch; conditions: for Tumors with complete response (no visible lesion): day 7, manual high-volume injection, 13 tumors ablated; for Tumor volume as % of the initial volume (normalized tumor volume): day 7, manual intratumoral injection, average 284±350 μL pure ethanol, 13 tumors
Text: The animal study protocol was approved by the Duke University Institutional Animal Care and Use Committee. For the manual pure ethanol ablation study, a total of 6 hamsters were used. For the rate- and viscosity-controlled study, a total of 8 hamsters were used. Tumors were induced through the topical application of dimethylbenz[a]anthracene (Sigma-Aldrich). Burns, R. A., et al., Tumor-localizing and photosensitizing properties of hematoporphyrin derivative in hamster buccal pouch carcinoma. Oral Surg Oral Med Oral Pathol, 1986. 61(4): p. 368-72. Three times a week the buccal mucosa of each cheek pouch was inverted then stretched from the mouth. An area of approximately […] was painted with a cotton swab dipped in the DMBA-mineral oil solution. The cheek pouches were painted until tumors of at least 100 uL in volume developed, at approximately 22 weeks.
Tumor volumes were measured before the injection and daily for 7 days after. […] They were only performed if the tumor volume had increased for two consecutive days after the 7 day observation period. Volumes were calculated by measuring the longest axis and the orthogonal axis and using the following formula: V=4/3π*(Rlong^2)*(Rorth). Complete response is defined as the total absence of any evidence of a tumor or raised lesion by visual examination.
For cell viability analysis, a one-Way ANOVA was used followed by a Tukey-HSD. For both phantom distribution volume and in vivo normalized tumor volume analysis, a non-parametric ANOVA was used (Kruskal-Wallis) followed by a non-parametric multiple comparisons test (Dunn's test). In comparing phantom distribution volume and in vivo normalized tumor volume, the Pearson's product moment correlation coefficient was calculated. All statistical analysis was performed in R. Normalized tumor volume was calculated by dividing by the volume at a given time point by the initial volume before treatment.

CCO [ethanol]
Viability (live cell count/total cell count) [1]: 19%
Normalized tumor volume [2]: 79±79%
Tumors with complete response (no visible lesion) [3]: 4 of 13
Tumors with complete response (no visible lesion) ([3]; listed as pure ethanol): 4 and 4 out of 13 and 4/13
Tumor volume as % of the initial volume (normalized tumor volume) [3]: 30%
Tumor volume as % of the initial volume (normalized tumor volume) ([3]; listed as pure ethanol): 30±33%
